Measurements: patent publication US4077949A, “Polypeptide hormones of the thymus” (Sloan-Kettering Institute for Cancer Research, priority 1975, dated 1978)
Ends that are not written are not given here.

Experiments:
[1] = tested on: Thy-1(θ) antigen on mouse bone marrow cells; assay: Cytotoxic inhibition test: induction of Thy-1(θ) antigen on bone marrow cells; type: cell-based; details: unfractionated cells, 100 ng/ml, 18 hours
Excerpt: (§1) Mice of the A/J, C57B1/6J, AKR/J and C58/J strains were purchased from the Jackson Laboratories (Bar Harbon, Me). A.TL-mice were bred at New York University from foundation stock. All mice were housed eight to a cage, and maintained on commercial high protein mouse pellets and acidified water.
(§2) Antibodies to TL antigen were produced by injecting live tumor cells (ASL-1) into A.TL- x C57B1/6J F.1 mice. After five semimonthly injections the animals were bled and the resultant serum pooled, absorbed with A.TL- thymus to remove autoantibodies, and stored in small aliquots at -70° C. […] Anti Thy 1-2 (0-C3H) was produced by injecting AKR/J mice with C58/J thymocytes and absorbing the resultant antiserum with AKR/J thymocytes.
Thymin I and Thymin II were isolated from bovine thymus as described. Each was dissolved in phosphate buffered saline (containing 1 mg/ml of bovine serum albumen to minimize adsorbtive losses), distributed into 2 μg lots and lyophilized. […]
Antisera to either TL or Thy-1 (0) were titered to determine the quantity of antibody which was required to kill 50% of the target cells in a standard suspension. […] The cells were then repelleted by centrifugation and a 0.075 ml aliquot of the supernatant fluid was counted in an automatic gamma spectrometer to determine the amount of Cr^51 released from the target cells. […] The RCI was calculated as follows: [formula]

[2] = tested on: neuromuscular transmission; assay: Electromyographic assay of neuromuscular transmission in mice after injection; type: in vivo; details: for activity of QAE-Sephadex fractions in producing neuromuscular block: fractions of Example 1, FIG. 3; for dose above which a statistically significant (P < .001) electromyographic decrement was produced / mean decrement: height of the tenth muscle action potential as % of the first: mice; for dose above which a statistically significant (P < .001) electromyographic decrement was produced: five days after dose, supramaximal nerve stimulation at 50 impulses per second; for mean decrement: height of the tenth muscle action potential as % of the first: five days after doses above threshold, 50 impulses per second, controls 94 ± 2%; for active dose range per body weight: test not specified
Experimental: To determine the neuromuscular action of Thymin I and Thymin II, the electromyographic response of mice five days after various doses of Thymin I or Thymin II is summarized in FIG. 4. Bovine serum albumin (0.5 mg/ml, 0.9% saline) was used as a protein stabilizer and controls were injected with the solvent alone.
In 15 control mice sampled at 75 sites the height of the tenth muscle action potential was 94 ± 2% (mean ± s.e.m.) of the height of the first. The mean values and s.e.m. (vertical bars) are shown for groups of 4-10 mice given various doses of Thymin I(o) and Thymin II (.quadrature.). Statistical significances of differences from the controls were calculated by Student's t-test and are shown by solid symbols (P < 0.001), half solid symbols (0.05 > P < 0.001) and open symbols (P > 0.05).
Mice were given 100 ng of Thymin I or solvent and five mice from each group were tested at various times. With supramaximal nerve stimulation at 50 impulses per second the height of the tenth muscle action potential was expressed as a percentage of the first. This change was calculated for five points in each of five to ten mice from each group. For each time point the change in Thymin-treated mice was expressed as a percentage of the change in solvent-treated control mice and the statistical significance of the difference was assessed by Student's t-test. A statistically significant (P < .001) abnormality in the electromyogram was first evident at 18 hours, was maximal at 24 hours and persisted through 5 days.
To make the determinations described in FIGS. 4 and 5, extracts were injected into test animals and neuromuscular transmission was studied after an interval of one to five days. Initially 100 g guinea pigs were injected intraperitoneally; neuromuscular transmission was studied in vitro with a preparation of the phrenic nerve and hemidiaphragm. Subsequently, 200 g rats were used; fractions were injected subcutaneously and neuromuscular transmission was assessed electromyographically. […] Female Swiss-Webster mice weighing 25-35 g were injected intraperitoneally, groups of five to ten mice being used to test each fraction. The animals were anesthetized with urethane and electromyography was performed as described. The muscle action potentials were recorded in each mouse following supramaximal nerve stimulation with ten impulses at a rate of 50 per second. Five sites were sampled in each mouse and for each group of mice the mean standard deviation and s.e.m. were calculated for the change in the height of the muscle action, potential being expressed as a percentage of the height of the first impulse.
The statistical significance of differences found were assessed by student's t-test.

[3] = tested on: TL antigen on mouse bone marrow cells; assay: Cytotoxic inhibition test: induction of TL antigen on bone marrow cells; type: cell-based; details: for absorption of anti TL antibody by incubated bone marrow cells: unfractionated cells, 100 ng/ml, 18 hours
Excerpt: as §1, §2
Thymin I and Thymin II were isolated from bovine thymus as described. Each was dissolved in phosphate buffered saline (containing 1 mg/ml of bovine serum albumen to minimize adsorbtive losses), distributed into 2 μg lots and lyophilized. Each polypeptide was reconstituted in tissue culture medium at the desired concentrations just prior to use.
(§3) Bone marrow cells were obtained from the femoral marrow. Both spleen and marrow cells were teased into single cell suspensions and washed three times in RPMI 1640 medium supplemented with 10 mM Hepes and 100 U/ml of penicillin and 100 μg/ml of streptomycin. The cells were then suspended in the same medium with 10% bovine serum at a concentration of 5.0×10^6 cells/ml. One milliliter of this suspension was incubated with an appropriate dilution of thymin in 16 mm plastic petrie dishes in a humidified atmosphere containing 5% CO2 in air. At the end of the incubation the cells were washed twice and held at 4° C. at a concentration of 5.0×10^6 cells/ml in culture medium until tested for the presence of TL or Thy-1(0).
ASL-1, a TL positive, Thy 1-2 (0-C3H) positive lymphoma of A strain mice was used as the target cell in all titrations of the antisera used in these experiments, and in the cytotoxic inhibition test to be described below. The lymphoma was maintained by weekly intraperitoneal passage in A/J mice. Lymophoma cells were labelled with Cr^51 and used as target cells in the cytotoxic inhibited test.
Antisera to either TL or Thy-1 (0) were titered to determine the quantity of antibody which was required to kill 50% of the target cells in a standard suspension. The appropriate amount of antiserum was added to each well of a microtiter plate with various dilutions of the cells being tested for their antigen content. The total volume was 0.15 ml. Cells expressing the antigen against which the antiserum was directed absorbed varying amounts of the antibody, and rendered less available to react with the Cr^51 labelled target cells which were added subsequently. The concentration of antibody used was extremely critical to the sensitivity of the test. The antisera to TL or Thy-1 (0) and the cells being tested for their antigen content were incubated together at 4° C. for 90 minutes. After this incubation 50,000 target cells in a volume of […] were added and the incubation continued in the cold for an additional 30 minutes to permit the sensitization of the target cells by the remaining unabsorbed antibody. The plates were then centrifuged at 1,500 rpm for 10 minutes and the supernatant fluid removed. The pelleted cells were resuspended in 0.1 ml or RPMI 1640, containing 4% fresh rabbit serum as a source of complement, and incubated for 45 minutes at 37° C. The cells were then repelleted by centrifugation and a 0.075 ml aliquot of the supernatant fluid was counted in an automatic gamma spectrometer to determine the amount of Cr^51 released from the target cells. All assays were performed in duplicate and the results were expressed by calculating the number of cells required to reduce the relative cytotoxic index (RCI) to 0.5. The RCI was calculated as follows: [formula]

[4] = tested on: spleen cells (least dense BSA gradient fraction); assay: Direct cytotoxic test (trypan blue), anti TL antiserum plus complement, spleen cells; type: cell-based, mouse; details: 20 ng/ml for two hours
Experimental: as §3
(§4) Bone marrow and spleen cells were obtained by flotation in BSA gradients similar to those used by Komuro and Boyse (Lancet, 10, 39, 1964). These cells were tested for their susceptibility to anti TL and Thy-1-(0) antibodies in a direct cytotoxicity test, using the uptake of trypan blue as a measure of cell death.

[5] = tested on: bone marrow cells (least dense BSA gradient fraction); assay: Direct cytotoxic test (trypan blue), anti TL antiserum plus complement, bone marrow cells; type: cell-based
Experimental: as §3, §4

[6] = Thymin I compared with Thymin II
[7] = single injection of 100 ng per mouse

Substance: GQFLEDPSVLTKEKLKSELVANNVTLPAGEQRKDVYVQLYLQHLTAVKR [Thymin I, H2 -gly-gln-phe-leu-glu-asp-pro-ser-val-leu-thr-lys-glu-lys-leu-lys-ser-glu-leu-val-ala-asn-asn-val-thr-leu-pro-ala-gly-glu-gln-arg-lys-asp-val-tyr-val- gln-leu-tyr-leu-gln-his-leu-thr-ala-val-lys-arg-cooh]
- absorption of anti Thy-1(θ) antibody by incubated bone marrow cells [1]: absorbed antibodies
- relative activity on neuromuscular transmission [2, 6]: slightly more active
- activity of QAE-Sephadex fractions in producing neuromuscular block [2]: active in producing neuromuscular block
- dose above which a statistically significant (P < .001) electromyographic decrement was produced [2]: above 4 ng/mouse
- mean decrement: height of the tenth muscle action potential as % of the first [2]: 84%
- time at which abnormality in the electromyogram was maximal [2, 7]: 24 h
- time through which abnormality in the electromyogram persisted [2, 7]: ≥ 5 days
- time at which abnormality in the electromyogram was first evident ([2]; single injection of 100 ng per mouse, P < .001): 18 h
- active dose range per body weight [2]: above 0.1 mg/kg of body weight
- active concentration as a fraction of that of the Bach et al. preparation [3]: approximately one thousandth
- relative potency in inducing TL and Thy-1(θ) antigens [3, 6]: slightly more potent
- concentration giving maximal induction of TL and Thy-1(θ) antigens ([3]; bone marrow cells): 2 ng/mL
- lowest concentration producing a measurable (detectable) response ([3]; bone marrow cells): 20 pg/mL
- absorption of anti TL antibody by incubated bone marrow cells [3]: absorbed antibodies
- death of spleen cells caused by anti TL antiserum plus complement [4]: 18%
- death of bone marrow cells caused by anti TL antiserum plus complement ([5]; 20 ng/ml for two hours, least dense fraction): 21%
- highest cell death values obtained in other experiments ([5]; anti TL antiserum plus complement, tissue not specified): ≤ 28%

Substance: H2 n-ser-gln-phe-leu-glu-asp-pro-ser-val-leu-thr-lys-glu-lys-leu-lys-ser-glu- leu-val-ala-asn-asn-val-thr-leu-pro-ala-gly-glu-gln-arg-lys-asp-val-tyr-val-gln-leu-tyr-leu-gln-thr-leu-thr-ala-val-lys-arg-cooh [Thymin II]
- absorption of anti Thy-1(θ) antibody by incubated bone marrow cells [1]: absorbed antibodies
- activity of QAE-Sephadex fractions in producing neuromuscular block [2]: active in producing neuromuscular block
- dose above which a statistically significant (P < .001) electromyographic decrement was produced [2]: above 32 ng/mouse
- mean decrement: height of the tenth muscle action potential as % of the first [2]: 82%
- active dose range per body weight [2]: above 0.1 mg/kg of body weight
- absorption of anti TL antibody by incubated bone marrow cells [3]: absorbed antibodies
